Biological target: T1, Rat liver microsomal squalene synthetase (Rattus norvegicus, UniProt Q02769)
T1 construct: Rat liver microsome, the source of enzyme; from tissue; host or cells: rat liver microsomes
T1 sequence (Q02769 1-416): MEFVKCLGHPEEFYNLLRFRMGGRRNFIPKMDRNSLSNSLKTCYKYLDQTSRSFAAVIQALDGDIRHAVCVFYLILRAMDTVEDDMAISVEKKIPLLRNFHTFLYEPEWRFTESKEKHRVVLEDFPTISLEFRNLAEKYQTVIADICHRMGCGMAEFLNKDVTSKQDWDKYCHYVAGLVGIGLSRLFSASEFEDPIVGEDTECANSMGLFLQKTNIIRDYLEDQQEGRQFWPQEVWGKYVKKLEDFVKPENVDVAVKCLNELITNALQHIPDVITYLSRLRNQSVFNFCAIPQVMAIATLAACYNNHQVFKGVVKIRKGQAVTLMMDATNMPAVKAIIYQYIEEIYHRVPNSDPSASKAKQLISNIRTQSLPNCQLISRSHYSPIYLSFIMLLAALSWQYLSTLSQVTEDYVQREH
Assay: In vitro inhibition of squalene synthetase
Format: biochemical
Settings: rat liver microsomes, labelled farnesyl pyrophosphate, 10 minutes at 37 °C; for inhibition at 10 µM: 10 µM test compound, compared to controls with no test compound
Experimental: In vitro inhibition of squalene synthetase may be measured by the following procedure. Rat liver microsomal squalene synthetase activity was measured using farnesyl pyrophosphate as a substrate and quantitating squalene synthesis using labelled farnesyl pyrophosphate and counting the squalene formed. Rat liver microsome, the source of enzyme, was prepared according to the method of Gillies, P. J., et al., Exp. Molc. Pathol. 44: 329-339 (1986), a modification of the procedure of Erickson, S. K., and Cooper, A. D., Metabolism, 29: 991-996 (1980). […] Oxygen was excluded from the closed incubation tube by degassing with nitrogen. The reaction was terminated by the addition of ethanolic KOH and after degassing with N2, the microsomal membranes were solubilized by heating at 60 °C for 30 minutes. The squalene was extracted into hexane, and the squalene was separated from all other radioactive molecules by passage over an activated alumina column. […] The per cent inhibition at a dose of 10 µM (or 1 µM) compared to controls with no test compound was determined. […]

[1] = values marked * in Table 1: 1 µM test compound

inhibition at 10 µM | inhibition at 1 µM [1] | SMILES | also measured
78% | – | CCCN(Cc1ccc(Oc2ccccc2)cc1)C(=O)[C@@H]1[C@H](C(=O)O)[C@@H](C(=O)OC)[C@H]1C(=O)N(CCC)Cc1ccc(Oc2ccccc2)cc1 (relative stereo) [Example 95, (1α,2β,3β,4α)-1,2-Di[N-propyl-N-(4-phenoxybenzyl)aminocarbonyl]-3-(methoxycarbonyl)cyclobutane-4-carboxylic Acid] | –
84% | – | CCCN(Cc1ccc(Oc2ccccc2)cc1)C(=O)[C@@H]1[C@H](C(=O)O)[C@@H](C(=O)NO)[C@H]1C(=O)N(CCC)Cc1ccc(Oc2ccccc2)cc1 (relative stereo) [Example 98C, (1α,2β,3β,4α)-1,2-Di[N-propyl-N-(4-phenoxybenzyl)aminocarbonyl]-3-[(hydroxyamino)carbonyl]cyclobutane-4-carboxylic Acid] | –
80% | – | CCCN(Cc1ccc(Oc2ccccc2)cc1)C(=O)[C@@H]1[C@H](C(N)=O)[C@@H](C(=O)O)[C@H]1C(=O)N(CCC)Cc1ccc(Oc2ccccc2)cc1 (relative stereo) [Example 99B, (1α,2β,3β,4α)-3-(Amino)carbonyl-1,2-di[N-propyl-N-(4-phenoxybenzyl)aminocarbonyl]cyclobutane-4-carboxylic Acid] | –
84% | – | CCCN(Cc1ccc(Oc2ccccc2)cc1)C(=O)[C@@H]1[C@H](C(=O)O)[C@@H](NS(=O)(=O)C(F)(F)F)[C@H]1C(=O)N(CCC)Cc1ccc(Oc2ccccc2)cc1 (relative stereo) [Example 100C, (1α,2β,3β,4α)-1,2-Di[N-propyl-N-(4-phenoxybenzyl)aminocarbonyl]-3-[(trifluoromethanesulfonyl)amino]cyclobutane-4-carboxylic Acid] | –
– | 86% | CCCN(Cc1ccc(Oc2ccccc2)cc1)C(=O)[C@@H]1[C@H](C(=O)O)[C@@H](CC(=O)O)[C@H]1C(=O)N(CCC)Cc1ccc(Oc2ccccc2)cc1 (relative stereo) [Example 101C] | –
58% | – | CCCN(Cc1ccc(Oc2ccccc2)cc1)C(=O)[C@@H]1[C@H](C(=O)C=[N+]=[N-])[C@@H](C(=O)C=[N+]=[N-])[C@H]1C(=O)N(CCC)Cc1ccc(Oc2ccccc2)cc1 (relative stereo) [Example 102, (1α,2β,3β,4α)-3,4-Bis(diazoacetyl)-1,2-di[N-propyl-N-(4-phenoxybenzyl)aminocarbonyl]cyclobutane] | –
90% | – | CCCN(Cc1ccc(Oc2ccccc2)cc1)C(=O)[C@@H]1[C@H](CC(=O)O)[C@@H](CC(=O)O)[C@H]1C(=O)N(CCC)Cc1ccc(Oc2ccccc2)cc1 (relative stereo) [Example 103B, (1α,2β,3β,4α)-1,2-Di[-N-propyl-N-(4-phenoxybenzyl)aminocarbonyl]cyclobutane-3-4-diacetic acid] | –
– | 70% | CCCCC(NC(=O)[C@@H]1[C@@H](C(=O)O)[C@@H](C(=O)N(CCC)Cc2ccc(Oc3ccccc3)cc2)[C@@H]1C(=O)N(CCC)Cc1ccc(Oc2ccccc2)cc1)C(=O)O (single isomer, unassigned) [Example 104A, (1α,2β,3β,4α)-1,2-Di[N-propyl-N-(4-phenoxybenzyl)aminocarbonyl]cyclobutane-3,4-dicarboxylic acid Mono-Norleucine Amide] | –
– | – | CCCCC(NC(=O)[C@@H]1[C@@H](C(=O)O)[C@@H](C(=O)N(CCC)Cc2ccc(Oc3ccccc3)cc2)[C@@H]1C(=O)N(CCC)Cc1ccc(Oc2ccccc2)cc1)C(=O)O (single isomer, unassigned) [Example 104B, (1α,2β,3β,4α)-1,2-Di[N-propyl-N-(4-phenoxybenzyl)aminocarbonyl]cyclobutane-3,4-dicarboxylic acid Mono-Norleucine Amide] | % Inhibition at 1 µM (values marked * in Table 1: 1 µM test compound, 1 µM): 71* %
– | 73% | CCCN(Cc1ccc(Oc2ccccc2)cc1)C(=O)C1C(C(=O)O)C(C(=O)NC(CO)C(=O)O)C1C(=O)N(CCC)Cc1ccc(Oc2ccccc2)cc1 (single isomer, unassigned) [Example 110A, (1α,2β,3β,4α)-1,2-Di[N-propyl-N-(4-phenoxybenzyl)aminocarbonyl]cyclobutane-3.4-dicarboxylic acid mono-Serine amide] | –

Source: patent EP0677039B1, “CYCLOBUTANE DERIVATIVES AS INHIBITORS OF […] SYNTHETASE AND PROTEIN […]” (Abbott Laboratories, priority 1993, dated 1995)
